# According to PubChem BioAssay AID791 (The Scripps Research Institute Molecular Screening Center, 2007):
# Active and inactive are the calls of the source.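 How the source made its calls: active means IC50 at or below 10 µM; inactive means IC50 above 10 µM.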
# Molecular target: Rho-associated protein kinase 2 (Homo sapiens) (UniProt O75116)
# Assay: blockers of Rho kinase 2 activity – biochemical, Kinase-Glo luminescence, S6 peptide, 384-well, dose response (AID 791)
# Settings: recombinant ROCK2, S6 peptide
# Rho-associated protein kinase 2 (Homo sapiens), sequence (O75116 whole entry, looked up): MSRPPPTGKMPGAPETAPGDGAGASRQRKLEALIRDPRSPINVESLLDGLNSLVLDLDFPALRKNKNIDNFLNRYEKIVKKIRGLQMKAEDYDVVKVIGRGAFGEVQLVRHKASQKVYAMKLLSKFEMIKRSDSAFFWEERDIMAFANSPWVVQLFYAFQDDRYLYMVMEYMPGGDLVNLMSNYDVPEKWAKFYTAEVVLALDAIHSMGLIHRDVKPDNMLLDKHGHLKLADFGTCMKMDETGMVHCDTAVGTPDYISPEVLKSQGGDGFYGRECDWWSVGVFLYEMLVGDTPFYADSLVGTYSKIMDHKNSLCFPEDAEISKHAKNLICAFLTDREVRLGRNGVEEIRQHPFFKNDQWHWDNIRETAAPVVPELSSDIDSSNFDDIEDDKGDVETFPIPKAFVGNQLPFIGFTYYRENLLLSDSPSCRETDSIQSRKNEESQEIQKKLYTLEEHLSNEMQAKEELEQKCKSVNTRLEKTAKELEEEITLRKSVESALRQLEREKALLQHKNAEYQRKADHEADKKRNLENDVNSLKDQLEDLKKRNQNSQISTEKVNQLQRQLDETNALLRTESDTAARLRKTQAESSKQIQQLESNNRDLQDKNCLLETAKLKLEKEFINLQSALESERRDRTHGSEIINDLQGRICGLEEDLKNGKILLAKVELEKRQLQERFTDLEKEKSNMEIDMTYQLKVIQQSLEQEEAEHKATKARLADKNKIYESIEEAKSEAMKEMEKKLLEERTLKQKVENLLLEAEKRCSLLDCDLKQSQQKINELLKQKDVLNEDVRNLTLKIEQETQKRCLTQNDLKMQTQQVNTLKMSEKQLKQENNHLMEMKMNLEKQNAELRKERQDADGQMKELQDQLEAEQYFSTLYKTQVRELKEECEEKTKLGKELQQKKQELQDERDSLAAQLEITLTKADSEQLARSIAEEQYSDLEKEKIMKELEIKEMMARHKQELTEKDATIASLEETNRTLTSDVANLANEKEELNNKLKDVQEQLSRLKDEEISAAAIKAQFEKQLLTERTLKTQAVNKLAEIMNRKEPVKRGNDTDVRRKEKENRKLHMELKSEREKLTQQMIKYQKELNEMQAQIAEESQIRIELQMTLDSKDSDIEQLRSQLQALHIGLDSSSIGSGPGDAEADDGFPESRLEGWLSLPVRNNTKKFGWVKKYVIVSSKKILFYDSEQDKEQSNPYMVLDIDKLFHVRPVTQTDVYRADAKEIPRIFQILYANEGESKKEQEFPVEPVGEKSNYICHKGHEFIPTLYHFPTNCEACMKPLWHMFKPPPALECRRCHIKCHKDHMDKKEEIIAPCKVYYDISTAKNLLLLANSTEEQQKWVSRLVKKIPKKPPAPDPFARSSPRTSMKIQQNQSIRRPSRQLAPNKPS
row,Compound,IC50
1,NC(C(=O)N1CCN(c2ccc3[nH]ncc3c2)CC1)c1ccc(Cl)cc1 (stereo not drawn),188 nM
2,N[C@H](Cc1ccccc1)C(=O)N1CCN(c2ccc3[nH]ncc3c2)CC1,379 nM
3,O=C(C(O)c1ccc(Br)cc1)N1CCN(c2ccc3[nH]ncc3c2)CC1 (stereo not drawn),7.86 nM
4,O=C([C@H](O)c1ccccc1Cl)N1CCN(c2ccc3[nH]ncc3c2)CC1,1200 nM
5,NC(C(=O)N1CCN(c2ccc3[nH]ncc3c2)CC1)c1ccc(Br)cc1 (stereo not drawn),8.97 nM
6,C[C@@H](N)C(=O)N1CCN(c2ccc3[nH]ncc3c2)CC1,> 10600 nM (inactive)
7,NC(C(=O)N1CCN(c2ccc3[nH]ncc3c2)CC1)c1cccc(Cl)c1 (stereo not drawn),756 nM
8,O=C([C@@H]1Cc2ccccc2CN1)N1CCN(c2ccc3[nH]ncc3c2)CC1,5320 nM
9,O=C(C(O)c1ccc(Cl)cc1)N1CCN(c2ccc3[nH]ncc3c2)CC1 (stereo not drawn),186 nM
10,CC(C)[C@@H](O)C(=O)N1CCN(c2ccc3[nH]ncc3c2)CC1,3910 nM
11,C[C@H](N)C(=O)N1CCC(Nc2ccc3[nH]ncc3c2)CC1,5740 nM
12,N[C@@H](C(=O)N1CCN(c2ccc3[nH]ncc3c2)CC1)c1ccccc1,1400 nM
13,O=C([C@H](O)c1cccc(Cl)c1)N1CCN(c2ccc3[nH]ncc3c2)CC1,1050 nM

# The next lines start with the values.
row,IC50,Compound
1,855 nM,O=C([C@H](O)c1ccccc1)N1CCN(c2ccc3[nH]ncc3c2)CC1
2,8.87 nM,O=C(C(O)c1ccc(Br)cc1)N1CCC(Nc2ccc3[nH]ncc3c2)CC1 (stereo not drawn)
3,1700 nM,O=C([C@@H](O)c1ccccc1Cl)N1CCC(Nc2ccc3[nH]ncc3c2)CC1
4,774 nM,O=C([C@H](O)c1ccccc1)N1CCC(Nc2ccc3[nH]ncc3c2)CC1
5,468 nM,N[C@@H](Cc1ccccc1)C(=O)N1CCC(Nc2ccc3[nH]ncc3c2)CC1
6,> 10000 nM (inactive),C[C@H](O)C(=O)N1CCC(Nc2ccc3[nH]ncc3c2)CC1
7,350 nM,O=C([C@H](O)c1cccc(Cl)c1)N1CCC(Nc2ccc3[nH]ncc3c2)CC1
8,835 nM,N[C@H](C(=O)N1CCC(Nc2ccc3[nH]ncc3c2)CC1)c1ccccc1
9,148 nM,NC(C(=O)N1CCC(Nc2ccc3[nH]ncc3c2)CC1)c1cccc(Cl)c1 (stereo not drawn)
10,1.26 nM,NC(C(=O)N1CCC(Nc2ccc3[nH]ncc3c2)CC1)c1ccc(Br)cc1 (stereo not drawn)
